{"source": "paper PMC10600165", "about": "(Nature Communications, 2023)", "target": "HK68 (human A/H3N2 HA) (Influenza A virus (A/Hong Kong/1/1968(H3N2)), UniProt Q91MA7)", "sequence (Q91MA7 17-530 limits assumed)": "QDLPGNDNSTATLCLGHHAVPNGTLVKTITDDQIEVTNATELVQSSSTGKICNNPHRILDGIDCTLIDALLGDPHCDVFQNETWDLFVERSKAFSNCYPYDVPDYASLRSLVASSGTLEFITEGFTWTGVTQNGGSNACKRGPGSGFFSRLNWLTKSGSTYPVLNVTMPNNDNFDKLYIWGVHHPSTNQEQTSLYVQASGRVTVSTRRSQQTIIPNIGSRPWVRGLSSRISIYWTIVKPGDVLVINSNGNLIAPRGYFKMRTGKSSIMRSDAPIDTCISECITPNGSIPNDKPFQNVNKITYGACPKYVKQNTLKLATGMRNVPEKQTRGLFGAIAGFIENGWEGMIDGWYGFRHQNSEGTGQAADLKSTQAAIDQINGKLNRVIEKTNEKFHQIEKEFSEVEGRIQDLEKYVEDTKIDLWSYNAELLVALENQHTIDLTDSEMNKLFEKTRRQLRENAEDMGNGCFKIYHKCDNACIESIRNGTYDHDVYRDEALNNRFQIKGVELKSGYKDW", "assay_type": "binding"}
{"molecule": "CC(=O)N[C@H]1[C@H](OCCCCCNC(=O)CCCC[C@@H]2SC[C@@H]3NC(=O)N[C@@H]32)O[C@H](CO)[C@@H](O[C@@H]2O[C@H](CO[C@]3(C(=O)O)C[C@H](OC(C)=O)[C@@H](NC(C)=O)[C@H]([C@H](O)[C@H](O)CO)O3)[C@H](O)[C@H](O)[C@H]2O)[C@@H]1O", "note": "[compound 6]", "values": [{"measurement": "glycan microarray, fluorescence", "result": "specific for 4-O-acetylated Neu5Ac and does not depend on linkage type"}]}
